Test results taken from patent US10005767B2, “Compositions and methods for inhibition of the JAK pathway” (Rigel Pharmaceuticals, Inc., priority 2009, dated 2018).

The compounds below were run on human primary T-cells, IL-2 stimulated proliferation (JAK-1 and JAK-3 dependent; reported as JAK3 activity) (assay: Human primary T-cell proliferation stimulated by IL-2 (Example 3)). Settings: Homo sapiens, T-cell, tested under conditions described in Example 3 (IL-2 stimulated human primary T-cell proliferation); read-out: ability to inhibit JAK3 activity, IC50 range (Table V).
Assay type: cell-based
In short: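 Peripheral-blood human T-cells pre-activated via TCR/CD28, IL-2-starved overnight, then cultured 72 h at 37 °C with compound in Yssel's medium containing IL-2 (80 U/mL in cell suspension). Proliferation read as viable-cell ATP by CellTiter-Glo luminescence; reduction versus control taken as JAK pathway inhibition.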
`CC(=O)c1ccc(Nc2ncc(C)c(Nc3ccc4oc(=O)[nH]c4c3)n2)cc1` [Compound I-129, 5-[2-(4-Acetyl-phenylamino)-5-methyl-pyrimidin-4-ylamino]-3H-benzooxazol-2-one] showed an IC50 of under 500 nM. `Cc1cnc(Nc2ccc3c(c2)C(=O)N(C)C/C=C\C3)nc1Nc1ccc2oc(=O)[nH]c2c1` [IV-10, (Z)-2-Methyl-9-[5-methyl-4-(2-oxo-2,3-dihydro-benzooxazol-5-ylamino)-pyrimidin-2-ylamino]-3,6-dihydro-2H-benzo[c]azocin-1-one] showed an IC50 of under 500 nM. For `Cc1cnc(Nc2cccc3c2OC(F)(F)O3)nc1Nc1ccc2oc(=O)[nH]c2c1` [IV-11, 5-[2-(2,2-Difluoro-benzo[1,3]dioxol-4-ylamino)-5-methyl-pyrimidin-4-ylamino]-3H-benzooxazol-2-one], the IC50 was under 500 nM. With `Cc1cnc(Nc2ccc(OCC(C)C)cc2)nc1Nc1ccc2oc(=O)[nH]c2c1` [Compound I-196, 5-[2-(4-Isobutoxy-phenylamino)-5-methyl-pyrimidin-4-ylamino]-3H-benzooxazol-2-one] the IC50 was under 500 nM. For `COc1cc(Nc2ncc(C)c(Nc3ccc4oc(=O)[nH]c4c3)n2)cc(C(=O)N2CCN(C)CC2)c1` [Compound I-255, 5-(2-(3-methoxy-5-(4-methylpiperazine-1-carbonyl)phenylamino)-5-methylpyrimidin-4-ylamino)benzo[d]oxazol-2(3H)-one], the IC50 was under 500 nM. In the case of `Cc1cnc(Nc2ccc(C(C)NC(C)C)cc2)nc1Nc1ccc2oc(=O)[nH]c2c1` (stereo not drawn) [Compound I-207, 5-(2-(4-(1-(isopropylamino)ethyl)phenylamino)-5-methylpyrimidin-4-ylamino)benzo[d]oxazol-2(3H)-one], the IC50 is reported as under 500 nM. For `Cc1cc(Nc2ncc(C)c(Nc3ccc4oc(=O)[nH]c4c3)n2)cc(C(F)F)c1` [Compound I-237, 5-(2-(3-(difluoromethyl)-5-methylphenylamino)-5-methylpyrimidin-4-ylamino)benzo[d]oxazol-2(3H)-one], the IC50 was under 500 nM. With `CCCC(NC)c1cc(Nc2ncc(C)c(Nc3ccc4oc(=O)[nH]c4c3)n2)cc(C(F)(F)F)c1` (stereo not drawn) [Compound I-460, 5-(5-methyl-2-(3-(1-(methylamino)butyl)-5-(trifluoromethyl)phenylamino)pyrimidin-4-ylamino)benzo[d]oxazol-2(3H)-one] the IC50 was under 500 nM. In the case of `Cc1ccc(Nc2ncc(C)c(Nc3ccc4oc(=O)[nH]c4c3)n2)cc1-c1ccncc1` [Compound I-443, 5-(5-methyl-2-(4-methyl-3-(pyridin-4-yl)phenylamino)pyrimidin-4-ylamino)benzo[d]oxazol-2(3H)-one], the IC50 is reported as under 500 nM. `CCNC(=O)c1ccc(Nc2ncc(C)c(Nc3ccc4oc(=O)[nH]c4c3)n2)cc1C` [Compound I-171, N-Ethyl-2-methyl-4-[5-methyl-4-(2-oxo-2,3-dihydro-benzooxazol-5-ylamino)-pyrimidin-2-ylamino]-benzamide] was tested, and the IC50 was under 500 nM. `Cc1cnc(Nc2ccc3c(c2)CC(=O)N3C)nc1Nc1ccc2oc(=O)[nH]c2c1` [IV-27, 5-(5-methyl-2-(1-methyl-2-oxoindolin-5-ylamino)pyrimidin-4-ylamino)benzo[d]oxazol-2(3H)-one] gave an IC50 of under 500 nM. For `COc1cc(Nc2ncc(C)c(Nc3ccc4oc(=O)[nH]c4c3)n2)cc(C(C)NC(C)C)c1` (stereo not drawn) [Compound I-231, 5-(2-(3-(1-(isopropylamino)ethyl)-5-methoxyphenylamino)-5-methylpyrimidin-4-ylamino)benzo[d]oxazol-2(3H)-one], the IC50 was under 500 nM. Work on `CCNC(=O)c1ccc(Nc2ncc(C)c(Nc3ccc4oc(=O)[nH]c4c3)n2)cc1` [Compound I-137, N-Ethyl-4-[5-methyl-4-(2-oxo-2,3-dihydro-benzooxazol-5-ylamino)-pyrimidin-2-ylamino]-benzamide] yielded an IC50 of under 500 nM. In the case of `Cc1cnc(Nc2cccc(C(=O)N3CCOCC3)c2)nc1Nc1ccc2oc(=O)[nH]c2c1` [Compound I-256, 5-(5-methyl-2-(3-(morpholine-4-carbonyl)phenylamino)pyrimidin-4-ylamino)benzo[d]oxazol-2(3H)-one], the IC50 is reported as under 500 nM. Work on `CCN(CC)CCNC(=O)c1ccc(Nc2ncc(C)c(Nc3ccc4oc(=O)[nH]c4c3)n2)cc1` [Compound I-127, N-(2-Diethylamino-ethyl)-4-[5-methyl-4-(2-oxo-2,3-dihydro-benzooxazol-5-ylamino)-pyrimidin-2-ylamino]-benzamide] yielded an IC50 of under 500 nM. `COc1cc(Nc2ncc(C)c(Nc3ccc4oc(=O)[nH]c4c3)n2)c(F)cc1F` [Compound I-193, 5-[2-(2,4-Difluoro-5-methoxy-phenylamino)-5-methyl-pyrimidin-4-ylamino]-3H-benzooxazol-2-one] was tested, and the IC50 was 500 to 5000 nM. Compound `Cc1cnc(Nc2cccc(Br)c2)nc1Nc1ccc2oc(=O)[nH]c2c1` [Compound I-175, 5-[2-(3-Bromo-phenylamino)-5-methyl-pyrimidin-4-ylamino]-3H-benzooxazol-2-one] has an IC50 of under 500 nM. Work on `Cc1cnc(Nc2cc(OCC3CCC3)cc(C(F)(F)F)c2)nc1Nc1ccc2oc(=O)[nH]c2c1` [Compound I-227, 5-(2-(3-(cyclobutylmethoxy)-5-(trifluoromethyl)phenylamino)-5-methylpyrimidin-4-ylamino)benzo[d]oxazol-2(3H)-one] yielded an IC50 of 500 to 5000 nM. With `Cc1cnc(Nc2cnc(N3CC4CC3CN4CC3CC3)c(F)c2)nc1Nc1ccc2oc(=O)[nH]c2c1` (stereo not drawn) [II-54, 5-{2-[6-(5-Cyclopropylmethyl-2,5-diaza-bicyclo[2.2.1]hept-2-yl)-5-fluoro-pyridin-3-ylamino]-5-methyl-pyrimidin-4-ylamino}-3H-benzooxazol-2-one] the IC50 was under 500 nM. Compound `Cc1cnc(Nc2cccc(C(N)=O)c2)nc1Nc1ccc2oc(=O)[nH]c2c1` [Compound I-2, N4-(benzo[d]oxazol-2(3H)-on-5-yl)-N2-(3-aminocarbonylphenyl)-5-methylpyrimidine-2,4-diamine] has an IC50 of under 500 nM.

Same assay, conditions: tested under conditions described in Example 3 (IL-2 stimulated human primary T-cell proliferation); read-out: ability to inhibit JAK3 activity, IC50 range (Table V)
Compound `O=c1[nH]c2cc(Nc3nc(Nc4ccc(N5CCOCC5)nc4)ncc3F)ccc2o1` [II-18, N4-(benzo[d]oxazol-2(3H)-on-5-yl)-N2-((2-morpholinyl)pyridin-5-yl)-5-fluoropyrimidine-2,4-diamine] has an IC50 of under 500 nM. `Cc1cnc(Nc2cc(F)cc(F)c2)nc1Nc1ccc2oc(=O)[nH]c2c1` [Compound I-359, N2-(3,5-difluoro)phenyl-5-methyl-N4-(2-oxo-2,3-dihydro-1,3-benzoxazol-5-yl)-2,4-pyrimidinediamine] showed an IC50 of under 500 nM. In the case of `COc1ccc(Nc2ncc(C)c(Nc3ccc4oc(=O)[nH]c4c3)n2)cc1OCC(=O)NC1CC1` [Compound I-293, N2-[3-(cyclopropylaminocarbonylmethoxy)-4-methoxy]phenyl-5-methyl-N4-(2-oxo-2,3-dihydro-1,3-benzoxazol-5-yl)-2,4-pyrimidinediamine], the IC50 is reported as under 500 nM. For `Cc1cnc(Nc2ccc(S(N)(=O)=O)cc2)nc1Nc1ccc2[nH]c(=O)oc2c1` [Compound I-99, N2-((4-aminosulfonyl)phenyl)-N4-(2-oxo-2,3-dihydrobenzo[d]oxazol-6-yl)-5-methylpyrimidine-2,4-diamine], the IC50 was under 500 nM. Work on `Cc1cnc(Nc2cc(C(C)(C)C)cc(C(C)(C)C)c2)nc1Nc1ccc2oc(=O)[nH]c2c1` [Compound I-355, N2-(3,5-di-tert-butyl)phenyl-5-methyl-N4-(2-oxo-2,3-dihydro-1,3-benzoxazol-5-yl)-2,4-pyrimidinediamine] yielded an IC50 of 500 to 5000 nM. In the case of `CCOc1cc(Nc2ncc(C)c(Nc3ccc4oc(=O)[nH]c4c3)n2)ccc1OC(F)F` [Compound I-313, N2-(4-difluoromethoxy-3-ethoxy)phenyl-5-methyl-N4-(2-oxo-2,3-dihydro-1,3-benzoxazol-5-yl)-2,4-pyrimidinediamine], the IC50 is reported as under 500 nM. For `CN(c1ccc(Nc2ncc(F)c(Nc3ccc4c(c3)oc(=O)n4C)n2)cc1)S(C)(=O)=O` [Compound I-97, N2-((4-methylsulfonyl-N-methylamino)phenyl)-N4-(3-methyl-2-oxo-2,3-dihydrobenzo[d]oxazol-6-yl)-5-fluoropyrimidine-2,4-diamine], the IC50 was over 10000 nM. `Cn1c(=O)oc2ccc(Nc3nc(Nc4cccc(S(N)(=O)=O)c4)ncc3F)cc21` [Compound I-75, N2-((3-aminosulfonyl)phenyl)-N4-(3-methyl-2-oxo-2,3-dihydrobenzo[d]oxazol-5-yl)-5-fluoropyrimidine-2,4-diamine] was tested, and the IC50 was under 500 nM. Work on `Cc1cnc(Nc2ccc(OC(F)(F)F)c(Cl)c2)nc1Nc1ccc2oc(=O)[nH]c2c1` [Compound I-366, N2-(3-chloro-4-trifluoromethoxy)phenyl-5-methyl-N4-(2-oxo-2,3-dihydro-1,3-benzoxazol-5-yl)-2,4-pyrimidinediamine] yielded an IC50 of under 500 nM. Work on `Cc1cnc(Nc2cc(C)c(C)c(F)c2)nc1Nc1ccc2oc(=O)[nH]c2c1` [Compound I-537, N2-(3,4-dimethyl-5-fluoro)phenyl-5-methyl-N4-(2-oxo-2,3-dihydro-1,3-benzoxazol-5-yl)-2,4-pyrimidinediamine] yielded an IC50 of under 500 nM. `Cc1cnc(Nc2ccc(NS(C)(=O)=O)cc2)nc1Nc1ccc2oc(=O)n(C)c2c1` [Compound I-72, N2-((4-methylsulfonylamino)phenyl)-N4-(3-methyl-2-oxo-2,3-dihydrobenzo[d]oxazol-5-yl)-5-methylpyrimidine-2,4-diamine] gave an IC50 of under 500 nM. `Cc1cnc(Nc2cccc(NS(C)(=O)=O)c2)nc1Nc1ccc2c(c1)oc(=O)n2C` [Compound I-73, N2-((3-methylsulfonylamino)phenyl)-N4-(3-methyl-2-oxo-2,3-dihydrobenzo[d]oxazol-6-yl)-5-methylpyrimidine-2,4-diamine] gave an IC50 of under 500 nM. Work on `Cc1cnc(Nc2ccc(N3CCC(F)(F)CC3)c(Cl)c2)nc1Nc1ccc2oc(=O)[nH]c2c1` [Compound I-277, N2-[3-chloro-4-(4,4-difluoropiperidinyl)]phenyl-5-methyl-N4-(2-oxo-2,3-dihydro-1,3-benzoxazol-5-yl)-2,4-pyrimidinediamine] yielded an IC50 of under 500 nM.
